Results: patent US20120156771A1, “FUNCTIONAL DISRUPTION OF AN IMMUNOGLOBULIN GENE IN AN AVIAN EMBRYONIC STEM CELL” (Origen Therapeutics, Inc., priority 2002, published 2012)

Test system: chicken embryonic stem cells
Experiment: Titration kill curve: morphology of cES cells under puromycin or neomycin selection
Assay type: cell-based
Set-up: key to Morphology of cES cells: ES: ES cells are present.; diff: ES cells are differentiated.; gone: no morphologically recognizable cells are present
Method: In a preferred embodiment, the concentration of puromycin required for selecting transfected cells is calculated as a titration kill curve. Titration kill curves for chicken embryonic stem cells are established by exposing cells in culture to puromycin concentrations varying from 0.0 to 1.0 μg/ml for 10 days (Table 7) and neomycin concentrations varying from 0.0 to 200 μg/ml (Table 8). The medium is changed every 2 days and fresh puromycin or neomycin is added. […] Puromycin concentrations of 0.3-1.0 μg/ml are used for selection of the transfected cultures. Neomycin concentrations over 40 μg/ml eliminated all cES cells within 7 days (Table 8).

## COc1ccc(C[C@H](N)C(=O)N[C@H]2[C@@H](O)[C@H](n3cnc4c(N(C)C)ncnc43)O[C@@H]2CO)cc1 [puromycin]
0.3 μg/ml puromycin, after 3 changes of medium with fresh puromycin over a six day period
  Presence of ES cells in wells: absent from all wells
Puromycin 0.1 μg/ml, day 1 under selection
  Morphology of cES cells: ES
Puromycin 0.1 μg/ml, day 2 under selection
  Morphology of cES cells: ES
Puromycin 0.1 μg/ml, day 3 under selection
  Morphology of cES cells: ES
Puromycin 0.1 μg/ml, day 4 under selection
  Morphology of cES cells: ES
Puromycin 0.1 μg/ml, day 5 under selection
  Morphology of cES cells: ES
Puromycin 0.1 μg/ml, day 6 under selection
  Morphology of cES cells: ES
Puromycin 0.1 μg/ml, day 7 under selection
  Morphology of cES cells: ES
Puromycin 0.1 μg/ml, day 8 under selection
  Morphology of cES cells: ES
Puromycin 0.1 μg/ml, day 9 under selection
  Morphology of cES cells: ES
Puromycin 0.1 μg/ml, day 10 under selection
  Morphology of cES cells: ES
Puromycin 0.2 μg/ml, day 1 under selection
  Morphology of cES cells: ES
Puromycin 0.2 μg/ml, day 2 under selection
  Morphology of cES cells: ES
Puromycin 0.2 μg/ml, day 3 under selection
  Morphology of cES cells: ES
Puromycin 0.2 μg/ml, day 4 under selection
  Morphology of cES cells: ES
Puromycin 0.2 μg/ml, day 5 under selection
  Morphology of cES cells: ES
Puromycin 0.2 μg/ml, day 6 under selection
  Morphology of cES cells: ES
Puromycin 0.2 μg/ml, day 7 under selection
  Morphology of cES cells: ES
Puromycin 0.2 μg/ml, day 8 under selection
  Morphology of cES cells: ES
Puromycin 0.2 μg/ml, day 9 under selection
  Morphology of cES cells: ES
Puromycin 0.2 μg/ml, day 10 under selection
  Morphology of cES cells: ES
Puromycin 0.25 μg/ml, day 1 under selection
  Morphology of cES cells: ES
Puromycin 0.25 μg/ml, day 2 under selection
  Morphology of cES cells: ES
Puromycin 0.25 μg/ml, day 3 under selection
  Morphology of cES cells: ES
Puromycin 0.25 μg/ml, day 4 under selection
  Morphology of cES cells: ES
Puromycin 0.25 μg/ml, day 5 under selection
  Morphology of cES cells: ES
Puromycin 0.25 μg/ml, day 6 under selection
  Morphology of cES cells: diff
Puromycin 0.25 μg/ml, day 7 under selection
  Morphology of cES cells: diff
Puromycin 0.3 μg/ml, day 1 under selection
  Morphology of cES cells: ES
Puromycin 0.3 μg/ml, day 2 under selection
  Morphology of cES cells: ES
Puromycin 0.3 μg/ml, day 3 under selection
  Morphology of cES cells: diff
Puromycin 0.3 μg/ml, day 6 under selection
  Morphology of cES cells: gone
Puromycin 0.3 μg/ml, day 7 under selection
  Morphology of cES cells: gone
Puromycin 0.3 μg/ml, day 8 under selection
  Morphology of cES cells: gone
Puromycin 0.3 μg/ml, day 9 under selection
  Morphology of cES cells: gone
Puromycin 0.3 μg/ml, day 10 under selection
  Morphology of cES cells: gone
Puromycin 0.4 μg/ml, day 1 under selection
  Morphology of cES cells: ES
Puromycin 0.4 μg/ml, day 2 under selection
  Morphology of cES cells: diff
Puromycin 0.4 μg/ml, day 3 under selection
  Morphology of cES cells: gone
Puromycin 0.4 μg/ml, day 4 under selection
  Morphology of cES cells: gone
Puromycin 0.4 μg/ml, day 5 under selection
  Morphology of cES cells: gone
Puromycin 0.4 μg/ml, day 6 under selection
  Morphology of cES cells: gone
Puromycin 0.4 μg/ml, day 7 under selection
  Morphology of cES cells: gone
Puromycin 0.4 μg/ml, day 8 under selection
  Morphology of cES cells: gone
Puromycin 0.4 μg/ml, day 9 under selection
  Morphology of cES cells: gone
Puromycin 0.4 μg/ml, day 10 under selection
  Morphology of cES cells: gone
Puromycin 0.5 μg/ml, day 1 under selection
  Morphology of cES cells: diff
Puromycin 0.5 μg/ml, day 2 under selection
  Morphology of cES cells: gone
Puromycin 0.5 μg/ml, day 3 under selection
  Morphology of cES cells: gone
Puromycin 0.5 μg/ml, day 4 under selection
  Morphology of cES cells: gone
Puromycin 0.5 μg/ml, day 5 under selection
  Morphology of cES cells: gone
Puromycin 0.5 μg/ml, day 6 under selection
  Morphology of cES cells: gone
Puromycin 0.5 μg/ml, day 7 under selection
  Morphology of cES cells: gone
Puromycin 0.5 μg/ml, day 8 under selection
  Morphology of cES cells: gone
Puromycin 0.5 μg/ml, day 9 under selection
  Morphology of cES cells: gone
Puromycin 0.5 μg/ml, day 10 under selection
  Morphology of cES cells: gone
Puromycin 0.6 μg/ml, day 1 under selection
  Morphology of cES cells: diff
Puromycin 0.6 μg/ml, day 2 under selection
  Morphology of cES cells: gone
Puromycin 0.6 μg/ml, day 3 under selection
  Morphology of cES cells: gone
Puromycin 0.6 μg/ml, day 4 under selection
  Morphology of cES cells: gone
Puromycin 0.6 μg/ml, day 5 under selection
  Morphology of cES cells: gone
Puromycin 0.6 μg/ml, day 6 under selection
  Morphology of cES cells: gone
Puromycin 0.6 μg/ml, day 7 under selection
  Morphology of cES cells: gone
Puromycin 0.6 μg/ml, day 8 under selection
  Morphology of cES cells: gone
Puromycin 0.6 μg/ml, day 9 under selection
  Morphology of cES cells: gone
Puromycin 0.6 μg/ml, day 10 under selection
  Morphology of cES cells: gone
Puromycin 0.7 μg/ml, day 1 under selection
  Morphology of cES cells: diff
Puromycin 0.7 μg/ml, day 2 under selection
  Morphology of cES cells: gone
Puromycin 0.7 μg/ml, day 3 under selection
  Morphology of cES cells: gone
Puromycin 0.7 μg/ml, day 4 under selection
  Morphology of cES cells: gone
Puromycin 0.7 μg/ml, day 5 under selection
  Morphology of cES cells: gone
Puromycin 0.7 μg/ml, day 6 under selection
  Morphology of cES cells: gone
Puromycin 0.7 μg/ml, day 7 under selection
  Morphology of cES cells: gone
Puromycin 0.7 μg/ml, day 8 under selection
  Morphology of cES cells: gone
Puromycin 0.7 μg/ml, day 9 under selection
  Morphology of cES cells: gone
Puromycin 0.7 μg/ml, day 10 under selection
  Morphology of cES cells: gone
Puromycin 0.8 μg/ml, day 1 under selection
  Morphology of cES cells: gone
Puromycin 0.8 μg/ml, day 2 under selection
  Morphology of cES cells: gone
Puromycin 0.8 μg/ml, day 3 under selection
  Morphology of cES cells: gone
Puromycin 0.8 μg/ml, day 4 under selection
  Morphology of cES cells: gone
Puromycin 0.8 μg/ml, day 5 under selection
  Morphology of cES cells: gone
Puromycin 0.8 μg/ml, day 6 under selection
  Morphology of cES cells: gone
Puromycin 0.8 μg/ml, day 7 under selection
  Morphology of cES cells: gone
Puromycin 0.8 μg/ml, day 8 under selection
  Morphology of cES cells: gone
Puromycin 0.8 μg/ml, day 9 under selection
  Morphology of cES cells: gone
Puromycin 0.8 μg/ml, day 10 under selection
  Morphology of cES cells: gone
